# Data as given in patent US11672843B2, “Somatostatin receptor agonist formulations” (CAMURUS AB, priority 2012, dated 2023).
# Structures can show the parent of a compound that is named as a salt. *1 amine or outer side, *2 acyl side, *3 side chain or, on linkers, in order; H or OH if unused. Where a SMILES comes first, the peptide text is derived from it. Side-chain parts run from the residue outwards. [ ]: non-standard residue; d: D form. The star is where a group is joined. Ethylenediamine = C(CN[*:2])N[*:1]; Hyp = O=C(O)[C@@H]1C[C@@H](O)CN1; Phg = N[C@H](C(=O)O)c1ccccc1; CO = O=C([*:1])[*:2]; Bn = c1ccc(C*)cc1
# Tests used:
# [1] = Stability comparison of SOM230 salt forms in lipid formulations, HPLC; format: physicochemical; conditions: storage for 2 weeks at 60° C.; ca 30 mg/mL free base
# Description: The lipid/SOM230(Pm), lipid/SOM230(Cl) and lipid/SOM230(Ac) formulations were divided into two 2R vials which were placed at 60° C. and the remaining amount from the preparation was assayed by HPLC (time point zero).
# The samples stored at 60° C. were pulled out after 2 weeks of storage for visual inspection and HPLC analysis.
# [2] = cited from earlier work
# [3] = Solubility screening of SOM230 in lipid formulations (visual inspection); format: physicochemical
# Description: Placebo lipid mixture formulations as well as formulations of the single respective lipid alone were prepared in 1 OR vials according to Table 1. The sample size was 6 g. […] The samples were allowed to equilibrate at ambient room temperature; samples with formulation types 1-8 on end-over-end rotation and samples with formulation types 9-12 on magnetic stirring. The flow chart in FIG. 1 describes the sample preparation process. The screening covered the following formulation variables: • Lipid weight ratio (SPC/GDO weight ratio) • Co-solvent nature and concentration • Single lipid formulations • Single solvent (only PG) The samples were studied by visual inspection and the appearance was noted. […] Mixing at ambient room temperature and visual observation continued after addition of more SOM230 drug powder.
# [4] = test system: SSTR2 and SSTR5; conditions: cited from earlier work
# [5] = in vivo; cited from earlier work
compound,measurement,setting,value
Pasireotide pamoate [SOM230 pamoate],Stability of salt form in the lipid formulations (HPLC),[1],most stable salt form
NCCCC[C@@H]1NC(=O)[C@@H](Cc2c[nH]c3ccccc23)NC(=O)[C@H](c2ccccc2)NC(=O)[C@@H]2C[C@@H](OC(=O)NCCN)CN2C(=O)[C@H](Cc2ccccc2)NC(=O)[C@H](Cc2ccc(OCc3ccccc3)cc2)NC1=O [Pasireotide] (cyclo([Hyp]([CO-Ethylenediamine])[Phg][dW]KY(Bn)F); ring closure inferred),Half-life,[2]; biological half-life,2 to 3 h
same,Initial half-life following the peak,"[2]; human, single subcutaneous dose",2 to 3 h
same,Solubility of SOM230 in EtOH,[3]; ethanol,< 1 wt %
same,Solubility of SOM230 in PG,[3]; propylene glycol only,> 1 wt %
"C[C@@H](O)[C@@H]1NC(=O)[C@H](CCCCN)NC(=O)[C@@H](Cc2c[nH]c3ccccc23)NC(=O)[C@H](Cc2ccccc2)NC(=O)[C@@H](NC(=O)[C@H](N)Cc2ccccc2)CSSC[C@@H](C(=O)N[C@H](CO)[C@@H](C)O)NC1=O [Octreotide, D-Phe-Cys-Phe-D-Trp-Lys-Thr-Cys-Thr-ol (2-7 disulphide bridge)]",Selectivity for somatostatin receptors,[4],high selectivity
same,Terminal half-life,[5],around 1.7 hours
NCCCC[C@@H]1NC(=O)[C@@H](Cc2c[nH]c3ccccc23)NC(=O)[C@H](c2ccccc2)NC(=O)[C@@H]2C[C@@H](OC(=O)NCCN)CN2C(=O)[C@H](Cc2ccccc2)NC(=O)[C@H](Cc2ccc(OCc3ccccc3)cc2)NC1=O [SOM230 hydrochloride] (cyclo([Hyp]([CO-Ethylenediamine])[Phg][dW]KY(Bn)F)),Stability of salt form in the lipid formulations (HPLC),[1],more stable than the acetate salt but not as stable as the pamoate salt
